Data published in US8735584B2 (Merck Patent GmbH, priority 2008, dated 2014).

Molecular target: T1, GST-Aurora A (Homo sapiens, UniProt O14965)
T1 construct: N-terminal GST fusion with full length Aurora A (1-403 amino acids); purchased Carna Biosciences 05-101
T1 sequence (O14965 1-403): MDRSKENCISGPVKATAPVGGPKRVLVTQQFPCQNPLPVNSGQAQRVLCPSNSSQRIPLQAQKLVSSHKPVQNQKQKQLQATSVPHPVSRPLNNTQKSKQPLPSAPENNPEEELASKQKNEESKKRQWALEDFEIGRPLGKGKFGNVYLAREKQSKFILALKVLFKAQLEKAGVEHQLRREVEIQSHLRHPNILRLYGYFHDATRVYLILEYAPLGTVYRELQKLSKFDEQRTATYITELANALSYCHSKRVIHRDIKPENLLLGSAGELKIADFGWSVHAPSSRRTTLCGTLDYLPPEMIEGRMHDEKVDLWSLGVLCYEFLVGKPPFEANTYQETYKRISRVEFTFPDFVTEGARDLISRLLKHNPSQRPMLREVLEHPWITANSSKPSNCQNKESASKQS
Assay: Aurora A IC50, Caliper LC3000 mobility shift assay
Assay type: biochemical
Settings: LC3000 method; 15 uM ATP (the KM value); read-out: Aurora Kinase A Activity (IC50)
Experimental: The Aurora assays described here are performed on two Caliper Life Sciences systems: the LC3000 and the Desktop Profiler. These provide data on enzyme activity via measurement of the relative amounts of phosphorylated or unphosphorylated fluorescently labelled substrate peptide at the end of an enzymatic reaction. These different states of peptide are resolved by applying a potential difference across the sample. The presence of the charged phosphate group on the product (as opposed to the substrate) causes a different peptide mobility between the two peptides. This is visualized by excitation of the fluorescent label on the substrate and product peptides and represented as peaks within the analysis software.
In order to measure inhibitor activity of Aurora A inhibitors in the Caliper Life Sciences LC3000, a TTP Mosquito liquid handling instrument is used to place 0.25 ul of the appropriate concentration of inhibitor in 100% DMSO (for a dose response curve calculation) into each well of a 384-well plate. To this reaction components are added to a final volume of 25 ul: • 0.067 ng/ul GST-Aurora A (Carna Biosciences 05-101. N-terminal GST fusion with full length Aurora A (1-403 amino acids), accession number NP 940835.1). • 15 uM ATP (Fluke, 02055) • 1 mM DTT (Sigma, D0632) • 1 mM MgCl2 (Sigma, M1028) • 1 uM substrate peptide (sequence FITC-LRRASLG-(CONH2), synthesized by Tufts Peptide Synthesis service. • 100 mM HEPES pH 7.5 (Calbiochem, 391338) • 0.015% Brij-35 (Sigma, B4184)
The reaction is incubated for 90 min at 25 C, and then stopped by the addition of 70 ul of Stop buffer (100 mM HEPES pH 7.5, 0.015% Brij-35, 10 mM EDTA (Sigma, E7889)).
The plate is read on a Caliper LC3000 in an Off-Chip mobility shift assay format, using the following parameters for a 12-sipper chip: screening pressure—1.8 psi, upstream voltage—2700, downstream voltage—1000. These conditions cause unphosphorylated substrate and phosphorylated product peptide to resolve as separate peaks allowing direct measurement of percentage of conversion of substrate to product. The percent conversion can be plotted against concentration of inhibitor to produce a sigmoidal dose response curve, from which an 1050 can be calculated using XLFit for Microsoft Excel.
In the desired wells of a 384-well plate, Aurora A (0.067 ng/ul) was incubated with 15 uM ATP (the KM value), 1 mM DTT, 1 mM MgCl2, and 1 uM peptide substrate (sequence FITC-LRRASLG-(CONH2), FITC=fluorescein isothiocyanate) in 100 mM HEPES pH 7.5 and 0.015% Brij-35 buffer. The reaction was incubated for 90 min at 25 C, and then stopped by the addition of 45 ul of Stop buffer (100 mM HEPES ph 7.5, 0.015% Brij-35, 10 mM EDTA).
The plate was read in a Caliper LC 3000 in an Off-Chip mobility shift assay format, using the following parameters: screening pressure—1.8 psi, upstream voltage—2700, downstream voltage—1000. These conditions cause unphosphorylated substrate peptide to resolve as a peak before that of the phosphorylated peptide product.
In the following table “+” means >100 nM, “++” means 11-100 nM, and “+++” means <11 nM.

| IC50 [nM] | SMILES |
| --- | --- |
| 11 to 100 | CN1CCN(c2ccc3c(=O)[nH]c4nccc(Nc5ccc(NC(=O)c6ccccc6)cc5)c4c3c2)CC1 [Compound 294, N-(4-(9-(4-methylpiperazin-1-yl)-6-oxo-5,6-dihydrobenzo[c][1,8]naphthyridin-1-ylamino)phenyl)benzamide] |
| > 100 | CN(C)CCNC(=O)c1ccc2c(=O)[nH]c3nccc(Cl)c3c2c1 [Compound 296, 1-Chloro-N-(2-(dimethylamino)ethyl)-6-oxo-5,6-dihydrobenzo[c][1,8]naphthyridine-9-carboxamide] |
| < 11 | CN(C)CCNC(=O)c1ccc2c(=O)[nH]c3nccc(Nc4ccc(NC(=O)c5ccc(F)cc5C(F)(F)F)cc4)c3c2c1 [Compound 297, N-(2-(Dimethylamino)ethyl)-1-(4-(4-fluoro-2-(trifluoromethyl)benzamido)phenylamino)-6-oxo-5,6-dihydrobenzo[c][1,8]naphthyridine-9-carboxamide] |
| < 11 | CN(C)CCNC(=O)c1ccc2c(=O)[nH]c3nccc(Nc4ccc(NC(=O)c5ccc(F)c(F)c5)cc4)c3c2c1 [Compound 298, 1-(4-(3,4-Difluorobenzamido)phenylamino)-N-(2-(dimethylamino)ethyl)-6-oxo-5,6-dihydrobenzo[c][1,8]naphthyridine-9-carboxamide] |
| 11 to 100 | O=C(Cc1ccc(Nc2ccnc3[nH]c(=O)c4ccccc4c23)cc1)Nc1ccccc1 [Compound 303, 2-(4-(6-Oxo-5,6-dihydrobenzo[c][1,8]naphthyridin-1-ylamino)phenyl)-N phenylacetamide] |
| > 100 | Cc1cc(Nc2ccnc3[nH]c(=O)c4ccccc4c23)n(CC(=O)Nc2ccccc2)n1 [Compound 308, 2-(3-Methyl-5-(6-oxo-5,6-dihydrobenzo[c][1,8]naphthyridin-1-ylamino)-1H-pyrazol-1-yl)-N-phenylacetamide] |
| > 100 | Cc1cc(Nc2ccnc3[nH]c(=O)c4ccccc4c23)n(CC(=O)Nc2ccc(F)c(F)c2)n1 [Compound 309, N-(3,4-difluorophenyl)-2-(3-methyl-5-(6-oxo-5,6-dihydrobenzo[c][1,8]naphthyridin-1-ylamino)-1H-pyrazol-1-yl)acetamide] |
| > 100 | O=C(Cc1cc(Nc2ccnc3[nH]c(=O)c4ccccc4c23)n[nH]1)Nc1ccc(F)c(F)c1 [Compound 313, N-(3,4-Difluorophenyl)-2-(3-(6-oxo-5,6-dihydrobenzo[c][1,8]naphthyridin-1-ylamino)-1H-pyrazol-5-yl)acetamide] |
| > 100 | O=C(Cc1cc(Nc2ccnc3[nH]c(=O)c4ccccc4c23)n[nH]1)Nc1cccc(F)c1 [Compound 314, N-(3-Fluorophenyl)-2-(3-(6-oxo-5,6-dihydrobenzo[c][1,8]naphthyridin-1-ylamino)-1H-pyrazol-5-yl)acetamide] |
| > 100 | O=C(Cc1cc(Nc2ccnc3[nH]c(=O)c4ccccc4c23)n[nH]1)Nc1ccccc1 [Compound 315, 2-(3-(6-Oxo-5,6-dihydrobenzo[c][1,8]naphthyridin-1-ylamino)-1H-pyrazol-5-yl)-N-phenylacetamide] |
| > 100 | O=C(Nc1ccccc1)c1ccc(Nc2ccnc3[nH]c(=O)c4ccccc4c23)cc1 [Compound 317, 4-(6-Oxo-5,6-dihydrobenzo[c][1,8]naphthyridin-1-ylamino)-N-phenylbenzamide] |
| 11 to 100 | O=C(Nc1ccc(Nc2ccnc3[nH]c(=O)c4ccccc4c23)cc1F)c1ccccc1 [Compound 320, N-(2-Fluoro-4-(6-oxo-5,6-dihydrobenzo[c][1,8]naphthyridin-1-ylamino)phenyl) benzamide] |
| < 11 | O=C(Nc1ccc(Nc2ccnc3[nH]c(=O)c4ccccc4c23)c(F)c1)c1ccccc1 [Compound 321, N-(3-Fluoro-4-(6-oxo-5,6-dihydrobenzo[c][1,8]naphthyridin-1-ylamino)phenyl)benzamide] |
| > 100 | Cc1cc(Nc2ccnc3[nH]c(=O)c4ccccc4c23)ccc1NC(=O)c1ccccc1 [Compound 322, N-(2-Methyl-4-(6-oxo-5,6-dihydrobenzo[c][1,8]naphthyridin-1-ylamino)phenyl)benzamide] |
| 11 to 100 | O=C(Nc1ccc(Nc2ccnc3[nH]c(=O)c4ccccc4c23)cn1)c1ccccc1 [Compound 324, N-(5-(6-Oxo-5,6-dihydrobenzo[c][1,8]naphthyridin-1-ylamino)pyridin-2-yl)benzamide] |
| 11 to 100 | O=C(Nc1ccc(CNc2ccnc3[nH]c(=O)c4ccccc4c23)cc1)c1ccccc1 [Compound 325, N-(4-((6-Oxo-5,6-dihydrobenzo[c][1,8]naphthyridin-1-ylamino)methyl)phenyl)benzamide] |
| 11 to 100 | O=C(Nc1ccc(CNc2ccnc3[nH]c(=O)c4ccccc4c23)cc1)c1cc(F)cc(F)c1 [Compound 326, 3,5-Difluoro-N-(4-((6-oxo-5,6-dihydrobenzo[c][1,8]naphthyridin-1-ylamino)methyl)phenyl)benzamide] |
| 11 to 100 | O=C(NCc1ccc(Nc2ccnc3[nH]c(=O)c4ccccc4c23)cc1)c1ccccc1 [Compound 327, N-(4-(6-oxo-5,6-dihydrobenzo[c][1,8]naphthyridin-1-ylamino)benzyl)benzamide] |
| 11 to 100 | O=c1[nH]c2nccc(Nc3ccc(OCc4ccccc4)cc3)c2c2ccccc12 [Compound 329, 1-(4-(Benzyloxy)phenylamino)benzo[c][1,8]naphthyridin-6(5H)-one] |
| 11 to 100 | O=c1[nH]c2nccc(Nc3ccc(OCc4cccc(F)c4)cc3)c2c2ccccc12 [Compound 330, 1-(4-(3-Fluorobenzyloxy)phenylamino)benzo[c][1,8]naphthyridin-6(5H)-one] |
| 11 to 100 | O=c1[nH]c2nccc(Nc3ccc4c(cnn4Cc4ccccc4)c3)c2c2ccccc12 [Compound 333, 1-(1-Benzyl-1H-indazol-5-ylamino)benzo[c][1,8]naphthyridin-6(5H)-one] |
| > 100 | Cn1ccc(-c2ccc(Nc3ccnc4[nH]c(=O)c5ccccc5c34)cc2)n1 [Compound 335, 1-(4-(1-Methyl-1H-pyrazol-3-yl)phenylamino)benzo[c][1,8]naphthyridin-6(5H)-one] |
| > 100 | O=c1[nH]c2nccc(Nc3ccc(NS(=O)(=O)c4ccccc4)cc3)c2c2ccccc12 [Compound 341, N-(4-(6-Oxo-5,6-dihydrobenzo[c][1,8]naphthyridin-1-ylamino)phenyl)benzenesulfonamide] |
| 11 to 100 | CNC(=O)Nc1ccc(Nc2ccnc3[nH]c(=O)c4ccccc4c23)cc1 [Compound 342, 1-Methyl-3-(4-(6-oxo-5,6-dihydrobenzo[c][1,8]naphthyridin-1-ylamino)phenyl)urea] |
| < 11 | O=C(Nc1ccccc1)Nc1ccc(Nc2ccnc3[nH]c(=O)c4ccccc4c23)cc1 [Compound 343, 1-(4-(6-Oxo-5,6-dihydrobenzo[c][1,8]naphthyridin-1-ylamino)phenyl)-3-phenylurea] |
| 11 to 100 | O=C(Nc1ccc(Nc2ccnc3[nH]c(=O)c4ccccc4c23)cc1)c1cccnc1 [Compound 344] |
| 11 to 100 | Cn1ccc(C(=O)Nc2ccc(Nc3ccnc4[nH]c(=O)c5ccccc5c34)cc2)n1 [Compound 345, 1-methyl-N-(4-(6-oxo-5,6-dihydrobenzo[c][1,8]naphthyridin-1-ylamino)phenyl)-1H-pyrazole-3-carboxamide] |
